In paper PMC9016712 (ACS Chemical Biology, 2022):
Where two headings read alike, the source gives them in different places. [ ]: non-standard residue; d: D form. Dap = NC[C@H](N)C(=O)O

Experiments:
MASP-1 = settings: cited from earlier work
MASP-2 [1] = settings: cited from earlier work
trypsin = settings: fold more potent than tested SFMI2 variants; cited from earlier work
MASP-2 [2] = assay: recombinant catalytic fragment of human MASP-2; settings: up to 1 h

| Substance | MASP-1 inhibition (MASP-1) | MASP-2 inhibition (MASP-2 [1]) | MASP-2 inhibition (MASP-2 [1]; listed as wild-type SFTI) | potency on trypsin relative to SFMI2 variants (trypsin) | cleaved bond (MASP-2 [2]) |
| --- | --- | --- | --- | --- | --- |
| SFTI: 14-amino acid sunflower trypsin inhibitor, smallest natural canonical trypsin inhibitor, cyclic | does not inhibit the MASPs | does not inhibit the MASPs | does not inhibit MASP-2 at all | about 1000 fold |  |
| HELM PEPTIDE1{[ac].G.Y.C.S.R.S.Y.P.P.V.C.I.P.D.[am]}$PEPTIDE1,PEPTIDE1,4:R3-12:R3$$$V2.0 (SMILES CC[C@H](C)[C@H](NC(=O)[C@@H]1CSSC[C@H](NC(=O)[C@H](Cc2ccc(O)cc2)NC(=O)CNC(C)=O)C(=O)N[C@@H](CO)C(=O)N[C@@H](CCCNC(=N)N)C(=O)N[C@@H](CO)C(=O)N[C@@H](Cc2ccc(O)cc2)C(=O)N2CCC[C@H]2C(=O)N2CCC[C@H]2C(=O)N[C@@H](C(C)C)C(=O)N1)C(=O)N1CCC[C@H]1C(=O)N[C@@H](CC(=O)O)C(N)=O) |  |  |  |  | Arg5-Ser6, 1 h |
| Ac-GY[Dap]SRSYPPVCIPD-NH2 |  |  |  |  | Arg5-Ser6, 1 h |
